Results as given in paper PMC8581430, “Peptide ligands targeting FGF receptors promote recovery from dorsal root crush injury via AKT/mTOR signaling” (Theranostics, 2021).

Test system: mTOR (phosphorylated) in DRG explants
Test: Western blot of phosphorylated mTOR in DRG explants
Format: cell-based, rat
Conditions: CH02 20 μM + inhibitor 2 μM, 4 h, n = 3
Procedure: Figure 7 CH02-stimulated activation of AKT/mTOR signaling is required for growth potential augmentation of axons. (A) Immunoblot analysis showing phosphorylated mTOR expression in C5-T1 DRGs subjected to dorsal root injury followed by CH02 treatment (20 μM). DRG samples were collected 3 days post-treatment. (B) Quantification of p-mTOR expression levels in A. n = 3 independent experiments. Relative protein expression levels were quantified after normalization to mTOR. Values are means ± SEM. (C) Immunoblot showing phosphorylated mTOR expression in DRG explants pretreated with DMSO (control), CH02 (20 μM), CH02+AKTi (2 μM) or CH02+ U0126 (2 μM) for 4 h. (D) Quantification of the p-mTOR expression from C. n = 3 independent experiments. Relative protein expression levels were quantified after normalization to mTOR. […] The axon is shown in fluorescence (β3-tubulin) images. […] (F) Quantification of the longest axon length of each neuron from (E) (n = 62 for each condition; *Control vs. CH02, CH02+Torin1, Torin1; # CH02 vs. CH02+Torin1; **p < 0.01, ****p < 0.0001, #p < 0.05 by one-way ANOVA with Dunnett's test; ns, not significant; mean ± SD). […] (H) Quantification of axon growth in DRG explants from (G) using Neurite-J software (n = 4 for each condition; *control vs. CH02, CH02+Torin1, Torin1; *p < 0.05, **p < 0.01, ***p < 0.001, ****p < 0.0001 by two-way ANOVA with Dunnett's test; mean ± SEM). […]

SMILES: N#CC(=C(/N)Sc1ccccc1N)/C(C#N)=C(/N)Sc1ccccc1N [U0126]
- effect of inhibitor on CH02-induced phosphorylated mTOR: had little effect
